Experimental data from patent US10550105B2 (Ribon Therapeutics Inc., priority 2018, dated 2020).

Target: PARP7 (Homo sapiens (Human), UniProt Q7Z3E1)
Test: Enzymatic assay for inhibition of PARP7: TR-FRET displacement of biotinylated Probe A from the TIPARP active site
Assay type: binding
Settings: Table A-1
Procedure: 20 nL of a dose response curve of each test compound was spotted in black 384-well polystyrene proxiplates (Perkin Elmer) using a Mosquito (TTP Labtech). […] Reactions were incubated at 25° C. for an additional 30 min, then read on an Envision platereader equipped with a LANCE/DELFIA top mirror (Perkin Elmer) using excitation of 320 nm and emission of 615 nm and […] with a 90 μs delay. The ratio of the 665/615 nm emission were calculated for each well to determine the amount of complex of TIPARP and Probe A in each well. […] The Hill Coefficient is normally allowed to float but may also be fixed at 1 in a 3-parameter fit. Y is the % inhibition and x is the compound concentration.

PARP7, sequence (Q7Z3E1 whole entry): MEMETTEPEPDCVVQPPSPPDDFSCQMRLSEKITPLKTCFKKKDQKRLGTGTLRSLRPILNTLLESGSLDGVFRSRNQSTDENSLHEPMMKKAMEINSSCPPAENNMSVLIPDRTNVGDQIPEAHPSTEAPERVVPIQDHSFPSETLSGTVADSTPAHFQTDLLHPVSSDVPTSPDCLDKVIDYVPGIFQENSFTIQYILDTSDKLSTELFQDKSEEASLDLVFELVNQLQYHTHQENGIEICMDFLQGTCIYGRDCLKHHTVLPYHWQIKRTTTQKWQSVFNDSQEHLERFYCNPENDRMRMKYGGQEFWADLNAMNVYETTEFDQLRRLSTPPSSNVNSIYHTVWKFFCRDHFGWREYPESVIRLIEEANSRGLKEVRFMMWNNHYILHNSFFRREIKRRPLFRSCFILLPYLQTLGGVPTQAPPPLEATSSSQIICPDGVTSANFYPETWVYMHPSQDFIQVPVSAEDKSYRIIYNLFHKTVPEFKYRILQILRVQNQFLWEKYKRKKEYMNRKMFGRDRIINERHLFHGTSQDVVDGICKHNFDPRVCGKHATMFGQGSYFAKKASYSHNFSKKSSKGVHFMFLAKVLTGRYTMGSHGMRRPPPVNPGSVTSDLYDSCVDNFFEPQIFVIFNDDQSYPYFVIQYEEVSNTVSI

Row | Structure (SMILES) | IC50 [nM]
1 | N#Cc1ccc(N2CCN(C(=O)CCOC[C@H](Nc3cn[nH]c(=O)c3C(F)(F)F)c3ccccc3)CC2)nc1 [Example 514A, 6-(4-[3-[(2R)-2-[[6-Oxo-5-(trifluoromethyl)-1,6-dihydropyridazin-4-yl]amino]-2-phenylethoxy]propanoyl]piperazin-1-yl)pyridine-3-carbonitrile] | ≥ 1000
2 | CC[C@@H](COCCC(=O)N1CCN(c2ccc(C#N)cn2)CC1)Oc1cn[nH]c(=O)c1C(F)(F)F [Example 589, 6-(4-[3-[(2S)-2-[[6-Oxo-5-(trifluoromethyl)-1,6-dihydropyridazin-4-yl]oxy]butoxy]propanoyl]piperazin-1-yl)pyridine-3-carbonitrile] | < 100
3 | C[C@@H](COCCS(=O)(=O)N1CCN(c2ncc(C(F)(F)F)s2)CC1)Oc1cn[nH]c(=O)c1C(F)(F)F [Example 625, (S)-4-(Trifluoromethyl)-5-((1-(2-[(4-(5-(trifluoromethyl)thiazol-2-yl)piperazin-1-yl)sulfonyl)ethoxy)propan-2-yl)oxy)pyridazin-3(2H)-one] | < 100
4 | CC(=O)N1CCN(C(=O)c2cccc(OCC3c4ccccc4CN3c3cn[nH]c(=O)c3C(F)(F)F)c2)CC1 (stereo not shown) [Example 405, 5-(1-((3-(4-Acetylpiperazine-1-carbonyl)phenoxy)methyl)isoindolin-2-yl)-4-(trifluoromethyl)pyridazin-3(2H)-one] | < 100
5 | C#CCOC[C@@H]1CCCN1c1cn[nH]c(=O)c1C(F)(F)F [Example 472, (S)-5-(2-((prop-2-yn-1-yloxy)methyl)pyrrolidin-1-yl)-4-(trifluoromethyl)pyridazin-3(2H)-one] | ≥ 1000
6 | CN(CC1c2ccccc2CN1c1cn[nH]c(=O)c1C(F)(F)F)c1cccc(C(=O)N2CCN(c3ccccn3)CC2)c1 (stereo not shown) [Example 344, 5-(1-((Methyl(3-(4-(pyridin-2-yl)piperazine-1-carbonyl)phenyl)amino)methyl)isoindolin-2-yl)-4-(trifluoromethyl)pyridazin-3(2H)-one] | 100 to 1000
7 | N#Cc1ccc(N2CCN(C(=O)CCOCC3c4ncccc4CN3c3cn[nH]c(=O)c3C(F)(F)F)CC2)nc1 (stereo not shown) [Example 412, 6-(4-(3-((6-(6-Oxo-5-(trifluoromethyl)-1,6-dihydropyridazin-4-yl)-6,7-dihydro-5H-pyrrolo[3,4-b]pyridin-7-yl)methoxy)propanoyl)piperazin-1-yl)nicotinonitrile] | < 100
8 | CC(=O)N(C)CC1c2ccccc2CN1c1cn[nH]c(=O)c1C(F)(F)F (stereo not shown) [Example 276, N-Methyl-N-((2-(6-oxo-5-(trifluoromethyl)-1,6-dihydropyridazin-4-yl)isoindolin-1-yl)methyl)acetamide] | ≥ 1000
9 | C[C@@H](CN(C)CCC(=O)N1CCN(c2ccc(C#N)cn2)CC1)Oc1cn[nH]c(=O)c1C(F)(F)F [Example 645, (S)-6-(4-(3-(Methyl(2-((6-oxo-5-(trifluoromethyl)-1,6-dihydropyridazin-4-yl)oxy)propyl)amino)propanoyl)piperazin-1-yl)nicotinonitrile] | < 100
10 | CC(=O)N1CCN(C(=O)CCOC[C@H]2c3ccccc3CN2c2cn[nH]c(=O)c2C(F)(F)F)CC1 [Example 420, (R)-5-(1-((3-(4-Acetylpiperazin-1-yl)-3-oxopropoxy)methyl)isoindolin-2-yl)-4-(trifluoromethyl)pyridazin-3(2H)-one] | ≥ 1000
11 | N#Cc1ccc(N2CCN(C(=O)[C@@H]3CCC[C@H](OC[C@@H]4CCCN4c4cn[nH]c(=O)c4C(F)(F)F)C3)CC2)nc1 (single isomer, unassigned) [Example 57 Isomer D] | 100 to 1000
12 | C[C@@H](COCCC(=O)N1CCC(Oc2ncc(C(F)(F)F)cn2)C1)Nc1cn[nH]c(=O)c1C(F)(F)F (stereo partly drawn) [Example 716, 5-(((2S)-1-(3-Oxo-3-(3-((5-(trifluoromethyl)pyrimidin-2-yl)oxy)pyrrolidin-1-yl)propoxy)propan-2-yl)amino)-4-(trifluoromethyl)pyridazin-3(2H)-one] | < 100
13 | N#Cc1ccc(N2CCN(C(=O)c3ccc(OCC4CCN(c5cn[nH]c(=O)c5C(F)(F)F)C4)cc3)CC2)nc1 (stereo not shown) [Example 477, 6-(4-(4-((1-(6-Oxo-5-(trifluoromethyl)-1,6-dihydropyridazin-4-yl)pyrrolidin-3-yl)methoxy)benzoyl)piperazin-1-yl)nicotinonitrile] | < 100
14 | CC(C)[C@@H](COCCC(=O)N1CCN(c2ccc(C#N)cn2)CC1)Nc1cn[nH]c(=O)c1C(F)(F)F [Example 595, 6-(4-[3-[(2S)-3-Methyl-2-[[6-oxo-5-(trifluoromethyl)-1,6-dihydropyridazin-4-yl]amino]butoxy]propanoyl]piperazin-1-yl)pyridine-3-carbonitrile] | < 100
15 | O=c1[nH]ncc(N2Cc3ccc(OCCO)cc3C2)c1Cl [Example 157, 4-Chloro-5-(5-(2-hydroxyethoxy)isoindolin-2-yl)pyridazin-3(2H)-one] | 100 to 1000
16 | N#Cc1ccc(N2CCN(C(=O)C[C@@H]3CC[C@@H](CNc4cn[nH]c(=O)c4C(F)(F)F)O3)CC2)nc1 (single isomer, unassigned) [Example 581 Isomer B] | < 100

Row | Structure (SMILES) | IC50 [nM]
17 | O=C(CCOC[C@H](CO)Nc1cn[nH]c(=O)c1C(F)(F)F)N1CCN(c2ncc(Cl)cn2)CC1 [Example 665, (S)-5-((1-(3-(4-(5-Chloropyrimidin-2-yl)piperazin-1-yl)-3-oxopropoxy)-3-hydroxypropan-2-yl)amino)-4-(trifluoromethyl)pyridazin-3(2H)-one] | < 100
18 | N#Cc1ccc(N2CCCC(NC(=O)CCOC[C@@H]3CCCN3c3cn[nH]c(=O)c3C(F)(F)F)C2)nc1 (stereo partly drawn) [Example 114, N-[1-(5-cyanopyridin-2-yl)piperidin-3-yl]-3-[[(2S)-1-[6-oxo-5-(trifluoromethyl)-1,6-dihydropyridazin-4-yl]pyrrolidin-2-yl]methoxy]propanamide] | ≥ 1000
19 | NC(=O)COc1cccc2c1CN(c1cn[nH]c(=O)c1C(F)(F)F)C2 [Example 204, 2-((2-(6-Oxo-5-(trifluoromethyl)-1,6-dihydropyridazin-4-yl)isoindolin-4-yl)oxy)acetamide] | 100 to 1000
20 | C[C@@H](CC(=O)N1CCN(c2ccc(C#N)cn2)CC1)OCCNc1cn[nH]c(=O)c1C(F)(F)F [Example 528A] | < 100
21 | N#CCCC(=O)N1CCN(C(=O)CCOC[C@H]2c3ccccc3CN2c2cn[nH]c(=O)c2C(F)(F)F)CC1 [Example 424, (R)-4-Oxo-4-(4-(3-((2-(6-oxo-5-(trifluoromethyl)-1,6-dihydropyridazin-4-yl)isoindolin-1-yl)methoxy)propanoyl)piperazin-1-yl)butanenitrile] | ≥ 1000
22 | CCOc1cccc2c1CN(c1cn[nH]c(=O)c1C(F)(F)F)C2 [Example 192, 5-(4-Ethoxyisoindolin-2-yl)-4-(trifluoromethyl)pyridazin-3(2H)-one] | < 100
23 | O=C(CCOC[C@@H]1c2ccccc2CN1c1cn[nH]c(=O)c1C(F)(F)F)N1CCNCC1 [Example 417, (S)-5-(1-((3-Oxo-3-(piperazin-1-yl)propoxy)methyl)isoindolin-2-yl)-4-(trifluoromethyl)pyridazin-3(2H)-one] | 100 to 1000
24 | COC[C@H](COCCC(=O)N1CCN(c2ncc(C(F)(F)F)cn2)CC1)Oc1cn[nH]c(=O)c1Br [Example 667, (R)-4-Bromo-5-((1-methoxy-3-(3-oxo-3-(4-(5-(trifluoromethyl)pyrimidin-2-yl)piperazin-1-yl)propoxy)propan-2-yl)oxy)pyridazin-3(2H)-one] | ≥ 1000
25 | CC1CN(c2ccc(C#N)cn2)CCN1C(=O)CCOC[C@@H]1CCCN1c1cn[nH]c(=O)c1C(F)(F)F (stereo partly drawn) [Example 473, 6-(3 -Methyl-4-(3-(((S)-1-(6-oxo-5-(trifluoromethyl)-1,6-dihydropyridazin-4-yl)pyrrolidin-2-yl)methoxy)propanoyl)piperazin-1-yl)nicotinonitrile] | < 100
26 | O=C(CCOC[C@@H]1CCCN1c1cn[nH]c(=O)c1C(F)(F)F)N1CCN(c2ccc(Cl)cn2)CC1 [Example 481, (S)-5-(2-((3-(4-(5-Chloropyridin-2-yl)piperazin-1-yl)-3-oxopropoxy)methyl)pyrrolidin-1-yl)-4-(trifluoromethyl)pyridazin-3(2H)-one] | < 100
27 | O=C(C[C@H]1CC[C@@H]([C@@H]2CCCN2c2cn[nH]c(=O)c2C(F)(F)F)O1)N1CCN(c2ncc(C(F)(F)F)cn2)CC1 [Example 149B, 5-[(2S)-2-[(2S,5R)-5-(2-oxo-2-[4-[5-(trifluoromethyl)pyrimidin-2-yl]piperazin-1-yl]ethyl)oxolan-2-yl]pyrrolidin-1-yl]-4-(trifluoromethyl)-2,3-dihydropyridazin-3-one] | < 100
28 | C[C@@H](COCCC(=O)N1CCN(c2ccc(C(F)(F)F)nc2)CC1)Nc1cn[nH]c(=O)c1C(F)(F)F [Example 685, (S)-5-((1-(3-Oxo-3-(4-(6-(trifluoromethyl)pyridin-3-yl)piperazin-1-yl)propoxy)propan-2-yl)amino)-4-(trifluoromethyl)pyridazin-3(2H)-one] | < 100
29 | C[C@@H](COCCC(=O)N1CCN(c2ncc(C#N)cn2)CC1)Oc1cn[nH]c(=O)c1C(F)(F)F [Example 579, 2-(4-[3-[(2S)-2-[[6-Oxo-5-(trifluoromethyl)-1,6-dihydropyridazin-4-yl]oxy]propoxy]propanoyl]piperazin-1-yl)pyrimidine-5-carbonitrile] | < 100
30 | N#Cc1ccc(N2CCN(C(=O)C[C@H]3CC[C@H](CNc4cn[nH]c(=O)c4C(F)(F)F)O3)CC2)nc1 [Example 581 Isomer C, 6-(4-[2-[(2R,5R)-5-([[6-oxo-5-(trifluoromethyl)-1,6-dihydropyridazin-4-yl]amino]methyl)oxolan-2-yl]acetyl]piperazin-1-yl)pyridine-3-carbonitrile] | < 100
31 | C[C@H](COc1cn[nH]c(=O)c1C(F)(F)F)OCCC(=O)N1CCN(c2ncc(Cl)cn2)CC1 (single isomer, unassigned) [Example 543 Isomer C] | < 100
